Data on 2 compounds can be found in PMC9856044 (Biomolecules, 2023).

Structures are written as SMILES. Where only a bound is given, the exact number is not on record here.

Data set [1] deals with SK-OV-3 cells. In words: MTT cytotoxicity assay, SK-OV-3. The data set is classed as cell-based. The settings on record: Homo sapiens, SK-OV-3, 72 h incubation, ± SD. As to the method: (§1) Human cervical carcinoma HeLa (GIBCO BRL, Invitrogen, Waltham, MA, USA), human melanoma MDA-MB-435S and human ovarian adenocarcinoma SK-OV-3 (ATCC-LGC Standards GmbH, Wesel, Germany) cell lines were purchased from indicated cell culture banks. Normal human skin fibroblasts were isolated from the upper arm of a donor at the Neurochemical Laboratory, Department of Chemistry and Biochemistry, School of Medicine, University of Zagreb. HeLa, MDA-MB-435S and fibroblasts were grown in Dulbecco’s Modified Eagle’s Medium (DMEM; Sigma-Aldrich, St. Louis, MI, USA) while the SK-OV-3 cell line was grown in McCoy’s 5A medium (Capricorn Scientific, Ebsdorfergrund, Germany). All media were supplemented with 10% fetal bovine serum (FBS; Sigma-Aldrich) and 50 I.U./mL penicillin and 50 μg/mL streptomycin. Cells were cultured in a humidified atmosphere of 5% CO2 at 37 °C and were sub-cultured every 3–4 days. HeLa, MDA-MB-435S, SK-OV-3 cells and fibroblasts were seeded in 96 well plates. Twenty-four hours later the cells were treated, in quadruplicate, with different concentrations of compounds (dissolved in DMSO, kept at 4 °C and protected from light). Following 72 h of incubation at 37 °C, the medium was aspired and modified 3-(4,5-dimethylthiazol-2-yl)-2,5-diphenyltetrazolium bromide (MTT) assay was used to determine the cytotoxic effect of the tested compounds. Three hours later, formazan crystals were dissolved in DMSO (0.17 mL/well), the plates were mechanically agitated for 20 min and the optical density at 600 nm was determined on a microtiter plate reader (Awareness Technology Inc., Palm City, FL, USA). The experiments were repeated three times.
Background: Tetrazolium dyes change colour on reduction, which living cells bring about.

For data set [2], the system named is Tel22 G-quadruplex. In words: Thermal melting of Tel22 in potassium phosphate buffer. The data set is classed as binding, human. The settings on record: Tel22, r = 1.0, potassium phosphate buffer, pH = 7.0, I = 0.1 mol dm^−3; error ±0.5 °C. As to the method: Thermal melting curves for DNA, RNA and their complexes with studied compounds were determined as previously described by following the absorption change at 260 nm as a function of temperature. The absorbance of the ligands was subtracted from every curve and the absorbance scale was normalized. Tm values are the midpoints of the transition curves determined from the maximum of the first derivative and checked graphically by the tangent method. The ∆Tm values were calculated by subtracting Tm of the free nucleic acid from Tm of the complex. Every ∆Tm value here reported was the average of two measurements. The error in ∆Tm is ±0.5 °C. 5′-AGGG(TTAGGG)3–3′(Tel22) was obtained from IDT (Integrated DNA Technologies, Coralville, IA, USA). Tel22 was dissolved in 0.1 M either in sodium cacodylate or potassium phosphate buffer. The starting Tel22 oligonucleotide solution was first heated up to 95 °C for 10 min, then slowly cooled to 10 °C at the cooling rate of 1 °C/min to allow DNA oligonucleotide to adopt a G-quadruplex structure. The G-quadruplex structure was confirmed by thermal melting and CD spectra. The concentration of G quadruplex was expressed in terms of oligonucleotide structure. In fluorimetric titrations, aliquots of Tel 22 solution were added to the solution of ligands (c ~ 2 × 10^−7 M, in SI).

Data set [3] is described as follows: Solubility and aggregation (UV/Vis characterization). It is filed as physicochemical. The settings on record: sodium cacodylate buffer, I = 0.05 mol dm^−3, pH = 7.0; UV/Vis. As to the method:
The UV/vis spectra were recorded on a Varian Cary 100 Bio spectrophotometer (Agilent, Santa Clara, CA, USA), CD spectra on JASCO J815 spectrophotometer (ABL&E Handels GmbH, Wien, Austria) and fluorescence spectra on a Varian Cary Eclipse spectrophotometer (Agilent, Santa Clara, CA, USA) at 25 °C using appropriate 1 cm path quartz cuvettes.
Studied compounds, 1–6 were soluble (c = 8 × 10^−4 mol dm^−3) in DMSO. […] Therefore, the stock solution of 2 was prepared fresh before use. The experiments were done in aqueous buffer (sodium cacodylate buffer, I = 0.05 mol dm^−3; pH = 7.0).
However, the shape of UV/Vis spectra of cyanine 2 changed with increasing concentration (calibration experiment in Figure S2 in SI). In addition to the dominant maximum at 432 nm (which most likely corresponds to the monomer form of the dye), the absorption band at 413 nm becomes more intense (Figure S2 in SI). Presumably, it corresponds to the aggregated form (H-aggregate). Based on the existence of an absorption band at 432 nm, only the monomer dye form is visible at high temperature (95 °C) (Figure S8b in SI). However, after cooling the solution to 25 °C, an additional band appears at 413 nm, which corresponds to the aggregated dye form.

For data set [4], the system named is Fibroblasts. In words: MTT cytotoxicity assay, normal human skin fibroblasts. The data set is classed as cell-based. The settings on record: Fibroblast, 72 h incubation, ± SD. As for the experimental part:
as §1

Data set [5] has as its target poly(dGdC)2 (GC-DNA). As to the kind of experiment: Fluorimetric titration with GC-DNA. It is filed as binding. The note with it: for log Ka / Ka (order of magnitude): GC-DNA; for Ka (order of magnitude): sodium cacodylate buffer, pH 7.0, I = 0.05 mol dm^−3, Scatchard equation; for K (fit parameter of titration curve): poly(dGdC)2, pH=7.0, sodium cacodylate buffer, I = 0.05 mol dm-3. As to the method:
Materials. Polynucleotides were purchased as noted: poly A–poly U, calf thymus ctDNA, poly(dAdT)2 and poly(dGdC)2 (Sigma-Aldrich, St. Louis, MI, USA). Polynucleotides were dissolved in Na-cacodylate buffer, I = 0.05 mol dm^−3, pH = 7.0. The calf thymus ctDNA was additionally sonicated and filtered through a […]. Polynucleotide concentration was determined spectroscopically as the concentration of phosphates. Spectrophotometric titrations were performed at pH = 7.0 (I = 0.05 mol dm^−3, sodium cacodylate buffer) by adding aliquots of polynucleotide solution into the solution of the studied compound for fluorimetric experiments and CD experiments were done by adding aliquots of the compound stock solution into the solution of a polynucleotide. In fluorimetric experiments, an excitation wavelength of λexc = 425, 431, 423, 427, 406 and 407 nm, respectively, was used to avoid the inner filter effect caused due to increasing absorbance of the polynucleotide. Emission was collected in the range λem = 400–700 nm. Values for Ka obtained by processing titration data using the Scatchard equation [27], all have satisfactory correlation coefficients (≥0.98). Furthermore, linear changes were evident with increasing DNA or RNA concentration in most titrations. The exceptions to this were titrations of cyanine 3 with GC-DNA and titrations of dye 5 with ds-DNA and ds-RNA where sufficient data points in the non-linear part of the curve allowed estimation of binding affinity (Ka values were of the order 10^5 mol^−1 dm^−3; Figures S16, S22 and S23 in SI). Titration data were collected at a high excess of polynucleotide binding sites (r[1–6]/[nucleotide phosphate] < 0.1; see Figures S9–S26 in SI) where each molecule can bind to a separate binding site. Binding affinities of dye-DNA/RNA complexes were calculated by non-linear fitting using the Scatchard equation [27, 33]. The fluorescence changes of dye 5 in the titration with AT-DNA were too small to obtain an accurate binding constant (Figure S21 in SI).

What is called IC50 is the midpoint of a concentration-inhibition curve. The low end stands for greater potency in that assay, the high end for weaker potency in that assay. In the case of `CN1/C(=C/c2[se]c3ccccc3[n+]2C)Sc2ccccc21` [Compound 3, 3-methyl-2-((3-methylbenzo[d]thiazol-2(3H)-ylidene)methyl)benzo[d][1,3]selenazol-3-ium methosulphate], the IC50 in data set [1] was 548 ± 102 nM. In addition, the “∆Tm” value in data set [2] was 0.5 °C. Besides, the “Aggregation in aqueous buffer” value in data set [3] is reported as “do not form aggregates”. Further, in data set [4], 2380 ± 161 nM corresponded to half-maximal inhibition (IC50). Besides, in data set [5], the “log Ka” value came to 5, the “Ka (order of magnitude)” value was ~10^5 mol^−1 dm^−3 and the “K (fit parameter of titration curve)” value is listed as 183746.7242 ±8918685.57223.

`C[n+]1c(/C=C2\Sc3ccccc3N2CCCS)[se]c2ccccc21` [Compound 5, 2-((3-(3-mercaptopropyl)benzo[d]thiazol-2(3H)-ylidene)methyl)-3-methylbenzo[d][1,3]selenazol-3-ium methosulphate]: the IC50 in data set [1] came out at 29600 ± 5720 nM. Moreover, the “∆Tm” value in data set [2] worked out at 5.1 °C. The “Aggregation in aqueous buffer” value in data set [3] is “significantly aggregate”. This compound also registered an IC50 in data set [4] of more than 40000 nM. Also, in data set [5], the “log Ka” value worked out at 5, the “Ka (order of magnitude)” value is ~10^5 mol^−1 dm^−3 and the “K (fit parameter of titration curve)” value came to 282880.22043 ±15074133.56759.
